# According to paper PMC13047053, “Crystal structure of human INPP5K with an allosteric inhibitor reveals the structural basis for species specific potency” (Scientific Reports, 2026):
# Molecular target: T1, human SHIP2 (Homo sapiens, UniProt O15357)
# T1 construct: full-length human SHIP2 (aa 1–1 258) containing a C-terminal FLAG-tag; FLAG (C); made in house; host or cells: Expi293 cells (pcDNA3.4, transient)
# T1 sequence (O15357 1-1258): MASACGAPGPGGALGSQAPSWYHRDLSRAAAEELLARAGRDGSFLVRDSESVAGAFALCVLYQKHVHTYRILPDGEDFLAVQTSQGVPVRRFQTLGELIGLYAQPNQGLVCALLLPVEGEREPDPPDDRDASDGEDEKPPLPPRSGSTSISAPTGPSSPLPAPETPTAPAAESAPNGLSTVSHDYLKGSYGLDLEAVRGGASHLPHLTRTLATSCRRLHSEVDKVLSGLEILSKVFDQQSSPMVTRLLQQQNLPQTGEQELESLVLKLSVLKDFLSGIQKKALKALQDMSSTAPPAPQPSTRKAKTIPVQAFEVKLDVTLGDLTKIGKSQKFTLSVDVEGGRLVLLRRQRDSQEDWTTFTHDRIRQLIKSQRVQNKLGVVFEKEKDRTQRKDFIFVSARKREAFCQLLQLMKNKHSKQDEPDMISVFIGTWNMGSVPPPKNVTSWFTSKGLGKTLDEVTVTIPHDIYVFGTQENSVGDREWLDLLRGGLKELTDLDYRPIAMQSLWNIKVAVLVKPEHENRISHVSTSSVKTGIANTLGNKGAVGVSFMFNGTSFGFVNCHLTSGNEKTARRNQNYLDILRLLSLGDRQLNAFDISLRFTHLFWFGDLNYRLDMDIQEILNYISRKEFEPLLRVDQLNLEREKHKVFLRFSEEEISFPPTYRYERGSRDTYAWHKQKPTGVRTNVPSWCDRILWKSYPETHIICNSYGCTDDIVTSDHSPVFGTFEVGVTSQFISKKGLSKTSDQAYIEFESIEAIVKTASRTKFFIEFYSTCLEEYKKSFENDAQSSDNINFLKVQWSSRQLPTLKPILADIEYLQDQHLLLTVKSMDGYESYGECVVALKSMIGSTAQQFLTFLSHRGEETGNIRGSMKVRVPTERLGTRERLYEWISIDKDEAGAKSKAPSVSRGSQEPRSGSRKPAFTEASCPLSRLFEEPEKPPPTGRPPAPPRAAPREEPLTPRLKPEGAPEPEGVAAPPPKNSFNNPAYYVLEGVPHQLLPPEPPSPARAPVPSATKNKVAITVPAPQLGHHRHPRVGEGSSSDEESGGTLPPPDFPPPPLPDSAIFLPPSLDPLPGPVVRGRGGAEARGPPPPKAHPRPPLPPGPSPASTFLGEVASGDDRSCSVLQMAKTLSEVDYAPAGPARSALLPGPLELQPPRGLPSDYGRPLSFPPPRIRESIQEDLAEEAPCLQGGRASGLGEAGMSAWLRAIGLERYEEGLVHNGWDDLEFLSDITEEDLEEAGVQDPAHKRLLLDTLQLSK
# Experiment: Inorganic phosphate detection assay for phosphatase inhibition
# Format: biochemical
# Conditions: 20 µM diC8-PI(3,4,5)P3, 20 min
# Description: The protein purification is described in detail elsewhere. Briefly, full-length human INPP5K (amino acids 1–448, UniProt ID: Q9BT40), rat INPP5K (aa 1–446, UniProt ID: Q9R0B6), mouse INPP5K (aa 1–468, UniProt ID: Q8C5L6), hamster INPP5K (aa 1–453, UniProt ID: G3HTF6), guinea pig INPP5K (aa 1–473, UniProt ID: H0V8T7) containing an N-terminal FLAG-tag, full-length human SHIP2 (aa 1–1 258) containing a C-terminal FLAG-tag, and full-length human PIPP (amino acids 1–1 006) containing an N-terminal His8-tag were all cloned into the pcDNA3.4 expression vector and transiently expressed in Expi293 cells (Thermo Fisher Scientific). The PH domain of human TAPP1 (amino acids 180–404) containing an N-terminal GST-tag was expressed in a pGEX6P1 expression vector (GE Healthcare) in E. coli strain BL21 ((Merck KGaA, Darmstadt, Germany)), following IPTG induction at 37 °C for 5 h. All the FLAG-tagged INPP5Ks and hSHIP2 were purified using affinity columns containing DDDDK-tagged protein purification gel (MBL, Medical & Biological Laboratories Co., Ltd., Tokyo, Japan), followed by size-exclusion chromatography with Superdex 200 columns (GE Healthcare). His8-tagged hPIPP was purified using Ni–NTA Superflow (Qiagen) and Superdex 200 columns. The GST-tagged hTAPP1 domain was purified using a Glutathione Sepharose 4B (GE Healthcare) and Superdex 200 columns. The purity of the protein obtained was evaluated using SDS-PAGE.
# The release of inorganic phosphate was measured using a PiPer Phosphate Assay Kit (Thermo Fisher Scientific), according to the manufacturer’s instructions, but with some modifications. Enzyme reactions were performed in a final volume of 10 µL per well in a 384-well nonbinding black plates (Greiner Bio-One International, GmbH, Kremsmünster, Austria). The reaction mixtures containing 20 µM diC8-PI(3,4,5)P₃ and each enzyme (human INPP5K, mouse INPP5K, rat INPP5K, hamster INPP5K, guinea pig INPP5K, human SHIP2, or human PIPP) in reaction buffer (50 mM Tris–HCl pH 7.0, 150 mM NaCl, 7.5 mM MgCl₂, 0.03% Igepal CA-630, 0.03% gelatin), with or without various concentrations of inhibitor, were incubated for 20 min at room temperature. The reactions were then stopped and detection reactions were initiated by adding 5 µL of detection mix 1 (60 mM EDTA, 12 U/mL maltose phosphorylase, and 0.6 mM maltose in 100 mM Tris–HCl pH 8.0). After incubation for 60 min at room temperature, 5 µL of detection mix 2 (8 U/mL glucose oxidase, 0.8 U/mL HRP, and 100 µM Amplex Red in 100 mM Tris–HCl pH 8.0) was added, and the mixture was incubated for a further 30 min at room temperature in the dark. The fluorescence generated was measured using an Envision plate reader at 531/590 nm (excitation/emission), and the percentage inhibition was calculated as described above.
structure (smiles),measurement,value
CC(C)c1sc(NC(=O)c2ccccc2)c(C(=O)O)c1-c1ccccc1 [CPD-1],IC50,> 100 µM
